The values below come from patent US20050070510A1, “Substituted tetracycline compounds as synergistic antifungal agents” (Paratek Pharmaceuticals, Inc., priority 2001, published 2005).

The test system of this data set is COS-1 cells. The data set is described as follows: In vitro mammalian cytotoxicity assay (Resazurin). For orientation: Alamar Blue is a resazurin reagent that responds to reducing activity.
As to `CN(C)c1ccc(-c2ccc(O)c3c2C[C@@]2(N)C[C@@]4(N)[C@H](N(C)C)C(O)=C(C(N)=O)C(=O)[C@@]4(C#N)C(O)=C2C3=O)cc1` [EM], the “In Vitro Cytotoxicity” value is recorded as “** (toxicities less than 25 μg/mL are represented by **)”.
As to `COc1ccc(-c2ccc(O)c3c2C[C@@]2(N)C[C@@]4(N)C(N(C)C)C(O)=C(C(N)=O)C(=O)[C@@]4(C#N)C(O)=C2C3=O)cc1C=O` (stereo partly shown) [QV], the “In Vitro Cytotoxicity” value was “** (toxicities less than 25 μg/mL are represented by **)”.
The entry for `CN(C)[C@@H]1C(O)=C(C(N)=O)C(=O)[C@@]2(C#N)C(O)=C3C(=O)c4c(ccc(-c5cccc(C(N)=O)c5)c4O)[C@H](N)[C@@]3(N)[C@H](O)[C@@]12N` [PP] is “** (toxicities less than 25 μg/mL are represented by **)”; for `CN(C)[C@@H]1C(O)=C(C(N)=O)C(=O)[C@@]2(C#N)C(O)=C3C(=O)c4c(ccc(NC(=O)OCC5c6ccccc6-c6ccccc65)c4O)[C@H](N)[C@@]3(N)[C@H](O)[C@@]12N` [BK] it is “** (toxicities less than 25 μg/mL are represented by **)”; for `CN(C)c1cc(NCCc2ccccc2)c(O)c2c1C[C@@]1(N)C[C@@]3(N)[C@H](N(C)C)C(O)=C(C(N)=O)C(=O)[C@@]3(C#N)C(O)=C1C2=O` [LN] it is “** (toxicities less than 25 μg/mL are represented by **)”.
Turning to `CN(C)[C@@H]1C(O)=C(C(N)=O)C(=O)[C@@]2(C#N)C(O)=C3C(=O)c4c(O)ccc(-c5cccc(C(N)=O)c5)c4C[C@@]3(N)C[C@@]12N` [IS], the “In Vitro Cytotoxicity” value was “* (toxicities greater than >25 μg/ml are represented by *)”.
Turning to `CN(C)c1cc(CNC(=O)NCC(Cl)(Cl)Cl)c(O)c2c1C[C@@]1(N)C[C@@]3(N)[C@H](N(C)C)C(O)=C(C(N)=O)C(=O)[C@@]3(C#N)C(O)=C1C2=O` [MX], the “In Vitro Cytotoxicity” value was “** (toxicities less than 25 μg/mL are represented by **)”.
Regarding `CN(C)c1cc(C#Cc2ccc(N)cc2)c(O)c2c1C[C@@]1(N)C[C@@]3(N)[C@H](N(C)C)C(O)=C(C(N)=O)C(=O)[C@@]3(C#N)C(O)=C1C2=O` [JG], the “In Vitro Cytotoxicity” value is “* (toxicities greater than >25 μg/ml are represented by *)”.
Take `CCc1cc(CNC(=O)c2cccnc2)c(O)c2c1C[C@@]1(N)C[C@@]3(N)[C@H](N(C)C)C(O)=C(C(N)=O)C(=O)[C@@]3(C#N)C(O)=C1C2=O` [IY]: the “In Vitro Cytotoxicity” value is recorded as “* (toxicities greater than >25 μg/ml are represented by *)”.
Regarding `CN(C)[C@@H]1C(O)=C(C(N)=O)C(=O)[C@@]2(C#N)C(O)=C3C(=O)c4c(O)c(C(C)(C)C)cc(C(=O)Cl)c4C[C@@]3(N)C[C@@]12N` [QA], the “In Vitro Cytotoxicity” value is reported as “** (toxicities less than 25 μg/mL are represented by **)”.
For `CN(C)[C@@H]1C(O)=C(C(N)=O)C(=O)[C@@]2(C#N)C(O)=C3C(=O)c4c(O)cccc4[C@H](N)[C@@]3(N)[C@H](OC(=O)CN)[C@@]12N` [BV], the “In Vitro Cytotoxicity” value is on record as “** (toxicities less than 25 μg/mL are represented by **)”.
On to `Cc1ccc(/C=C/c2ccc(O)c3c2C[C@@]2(N)C[C@@]4(N)[C@H](N(C)C)C(O)=C(C(N)=O)C(=O)[C@@]4(C#N)C(O)=C2C3=O)cc1` [HA], for which the “In Vitro Cytotoxicity” value was “** (toxicities less than 25 μg/mL are represented by **)”.
For the compound `CN(C)c1cc(-c2ccc(CN3CCCC3)o2)c(O)c2c1C[C@@]1(N)C[C@@]3(N)[C@H](N(C)C)C(O)=C(C(N)=O)C(=O)[C@@]3(C#N)C(O)=C1C2=O` [SQ], the “In Vitro Cytotoxicity” value was “* (toxicities greater than >25 μg/ml are represented by *)”.
Turning to `CN(C)c1cc(C2C=CCC2)c(O)c2c1C[C@@]1(N)C[C@@]3(N)[C@H](N(C)C)C(O)=C(C(N)=O)C(=O)[C@@]3(C#N)C(O)=C1C2=O` (stereo partly shown) [DO], the “In Vitro Cytotoxicity” value is given as “** (toxicities less than 25 μg/mL are represented by **)”.
On to `CN(C)[C@@H]1C(O)=C(C(N)=O)C(=O)[C@@]2(C#N)C(O)=C3C(=O)c4c(ccc(C5C=CCC5)c4O)C(N)[C@@]3(N)[C@H](O)[C@@]12N` (stereo partly shown) [AY], for which the “In Vitro Cytotoxicity” value was “** (toxicities less than 25 μg/mL are represented by **)”.
Consider `CN(C)[C@@H]1C(O)=C(C(N)=O)C(=O)[C@@]2(C#N)C(O)=C3C(=O)c4c(O)ccc(-c5ccccn5)c4[C@H](N)[C@@]3(N)[C@H](O)[C@@]12N` [CN], for which the “In Vitro Cytotoxicity” value is reported as “* (toxicities greater than >25 μg/ml are represented by *)”.
For `CN(C)[C@@H]1C(O)=C(C(N)=O)C(=O)[C@@]2(C#N)C(O)=C3C(=O)c4c(O)ccc(CCC5CCCCC5)c4C[C@@]3(N)C[C@@]12N` [IX], the “In Vitro Cytotoxicity” value is recorded as “** (toxicities less than 25 μg/mL are represented by **)”.
As for `CN(C)[C@@H]1C(O)=C(C(N)=O)C(=O)[C@@]2(C#N)C(O)=C3C(=O)c4c(O)cccc4C(N)[C@@]3(N)[C@H](OC(=O)CNC(=O)OC(C)(C)C)[C@@]12N` (stereo partly shown) [AU], the “In Vitro Cytotoxicity” value was “** (toxicities less than 25 μg/mL are represented by **)”.
In the case of `COc1ccc(-c2ccc(O)c3c2C[C@@]2(N)C[C@@]4(N)[C@H](N(C)C)C(O)=C(C(N)=O)C(=O)[C@@]4(C#N)C(O)=C2C3=O)c(OC)c1OC` [RT], the “In Vitro Cytotoxicity” value was “** (toxicities less than 25 μg/mL are represented by **)”.
The entry for `CN(C)[C@@H]1C(O)=C(C(N)=O)C(=O)[C@@]2(C#N)C(O)=C3C(=O)c4c(O)ccc(-c5cccc(N)c5)c4C[C@@]3(N)C[C@@]12N` [FC] is “** (toxicities less than 25 μg/mL are represented by **)”.
As for `CCOc1ccccc1-c1ccc(O)c2c1C[C@@]1(N)C[C@@]3(N)[C@H](N(C)C)C(O)=C(C(N)=O)C(=O)[C@@]3(C#N)C(O)=C1C2=O` [ER], the “In Vitro Cytotoxicity” value is reported as “** (toxicities less than 25 μg/mL are represented by **)”.
As for `CN(C)c1cc(NCc2ccc(C#N)cc2)c(O)c2c1C[C@@]1(N)C[C@@]3(N)[C@H](N(C)C)C(O)=C(C(N)=O)C(=O)[C@@]3(C#N)C(O)=C1C2=O` [TU], the “In Vitro Cytotoxicity” value is on record as “* (toxicities greater than >25 μg/ml are represented by *)”.
With `CCOC(=O)CNCc1ccc(OC)c(-c2ccc(O)c3c2C[C@@]2(N)C[C@@]4(N)[C@H](N(C)C)C(O)=C(C(N)=O)C(=O)[C@@]4(C#N)C(O)=C2C3=O)c1` [NK], the “In Vitro Cytotoxicity” value is given as “* (toxicities greater than >25 μg/ml are represented by *)”.
Regarding `CCOC(=O)C(NCc1ccc(OC)c(-c2ccc(O)c3c2C[C@@]2(N)C[C@@]4(N)[C@H](N(C)C)C(O)=C(C(N)=O)C(=O)[C@@]4(C#N)C(O)=C2C3=O)c1)C(C)C` (stereo partly shown) [NZ], the “In Vitro Cytotoxicity” value is “** (toxicities less than 25 μg/mL are represented by **)”.
As for `CN(C)[C@@H]1C(O)=C(C(N)=O)C(=O)[C@@]2(C#N)C(O)=C3C(=O)c4c(O)ccc(-c5ccc(NC(=O)CN)cc5)c4C[C@@]3(N)C[C@@]12N` [VA], the entry is “** (toxicities less than 25 μg/mL are represented by **)”; as for `CN(C)c1cc(C#Cc2cccnc2)c(O)c2c1C[C@@]1(N)C[C@@]3(N)[C@H](N(C)C)C(O)=C(C(N)=O)C(=O)[C@@]3(C#N)C(O)=C1C2=O` [JH], “** (toxicities less than 25 μg/mL are represented by **)”; as for `CN(C)[C@@H]1C(O)=C(C(N)=O)C(=O)[C@@]2(C#N)C(O)=C3C(=O)c4c(O)ccc(C#Cc5c(F)c(F)c(F)c(F)c5F)c4C[C@@]3(N)C[C@@]12N` [FK], “** (toxicities less than 25 μg/mL are represented by **)”.
As to `COC(=O)CCC(=O)Nc1ccc(-c2ccc(O)c3c2C[C@@]2(N)C[C@@]4(N)[C@H](N(C)C)C(O)=C(C(N)=O)C(=O)[C@@]4(C#N)C(O)=C2C3=O)cc1` [UT], the “In Vitro Cytotoxicity” value is given as “** (toxicities less than 25 μg/mL are represented by **)”.
